Measurements reported in patent US20190022152A1, “MICROBIOME RESPONSE TO AGENTS” (Yeda Research and Development Co., Ltd., priority 2014, published 2019).
Like-named read-outs stand apart in the source and are kept apart here.

Columns and labels:
fecal microbiota [1] = system: fecal microbiota
Experimental: Frozen fecal samples were processed for DNA isolation using the MoBio PowerSoil kit according to the manufacturer's instructions. 1 ng of the purified fecal DNA was used for PCR amplification and sequencing of the bacterial 16S rRNA gene. ˜365 bp Amplicons spanning the variable region 2 (V2) of the 16S rRNA gene were generated by using the following barcoded primers: Fwd 5′-[…]-3′ (SEQ ID NO: 3), Rev 5′-[…]-3′ (SEQ ID NO: 4). […] Reads were then processed using the QIIME (Quantitative Insights Into Microbial Ecology) analysis pipeline as described, version 1.8. Paired-end joined sequences were grouped into operational taxonomic units (OTUs) using the UCLUST algorithm and the greengenes database. Sequences with distance-based similarity of 97% or greater over median sequence length of 353 bp were assigned to the same OTU. Samples were grouped according to the treatment. Analysis was performed at each taxonomical level (Phylum-genus+OTU level) separately. For each taxon, G test was performed between the different groups. P-values were FDR corrected for multiple hypothesis testing.

fecal microbiota [2] = details: for Fold change (week 11/week 0) in relative species abundance: fecal samples, 11 weeks consumption
Experimental: Illumina sequence reads were mapped to the human microbiome reference genome database of the Human Microbiome Project [www(dot)hmpdacc(dot)org/HMREFG/^32], and to a gut microbial gene catalogue^33 using GEM mapper^58 with the following parameters: • -m 3 -s 0 -q offset-33 -gem-quality-threshold 26
Microbial species abundance was measured as the fraction of reads that mapped to a single species in the database. An EM algorithm adapted from Pathoscope^59 was employed to determine the correct assignment of reads that mapped to more than one species. We considered only species for which at least 10% of the genome was covered (each coverage bin was 10,000-bp long) in at least one of the growth conditions (saccharin, water, or glucose). Reads mapped to the gut microbial gene catalogue were assigned a KEGG^34,35 ID according to the mapping available with the catalogue. Genes were subsequently mapped to KEGG pathways, and only pathways whose gene coverage was above 0.2 were included.

SMILES: O=C1NS(=O)(=O)c2ccccc21 [saccharin]
- microbiota composition (dysbiosis) (fecal microbiota [1]; mice consuming pure saccharin and HFD): dysbiosis was observed
- operational taxonomic units (OTUs) significantly altered in abundance (fecal microbiota [1]; saccharin-consuming mice vs all control groups, week 11, FDR corrected p<0.05 (FIG. 21: commercial saccharin)): > 40
- changes in microbial relative species abundance (fecal microbiota [2]; 11 weeks commercial saccharin vs glucose or water, F-test p<10^−10): largest changes
- Fold change (week 11/week 0) in relative species abundance (fecal microbiota [2]; Symbol BACT_9, Number 996): 0.65
- Fold change (week 11/week 0) in relative species abundance (fecal microbiota [2]; Symbol BACT_22, Number 639): 0.36
- Fold change (week 11/week 0) in relative species abundance (fecal microbiota [2]; Symbol BACT_38, Number 780): 0.50
- Fold change (week 11/week 0) in relative species abundance (fecal microbiota [2]; Symbol BACT_49, Number 420): 0.02
- Fold change (week 11/week 0) in relative species abundance (fecal microbiota [2]; Symbol BACT_60, Number 752): 0.71
- Fold change (week 11/week 0) in relative species abundance (fecal microbiota [2]; Symbol BACT_65, Number 918): 6.73
- Fold change (week 11/week 0) in relative species abundance (fecal microbiota [2]; Symbol BACT_70, Number 863): 9.41
- Fold change (week 11/week 0) in relative species abundance (fecal microbiota [2]; Symbol BACT_85, Number 934): 0.45
- Fold change (week 11/week 0) in relative species abundance (fecal microbiota [2]; Symbol BACT_142, Number 843): 0.42
- Fold change (week 11/week 0) in relative species abundance (fecal microbiota [2]; Symbol BACT_170, Number 883): 0.48
- Fold change (week 11/week 0) in relative species abundance (fecal microbiota [2]; Symbol BACT_171, Number 748): 0.56
- Fold change (week 11/week 0) in relative species abundance (fecal microbiota [2]; Symbol BACT_172, Number 768): 1.03
- Fold change (week 11/week 0) in relative species abundance (fecal microbiota [2]; Symbol BACT_178, Number 921): 0.28
- Fold change (week 11/week 0) in relative species abundance (fecal microbiota [2]; Symbol BACT_181, Number 767): 0.40
- Fold change (week 11/week 0) in relative species abundance (fecal microbiota [2]; Symbol BACT_185, Number 633): 8.79
- Fold change (week 11/week 0) in relative species abundance (fecal microbiota [2]; Symbol BACT_189, Number 636): 1.92
- Fold change (week 11/week 0) in relative species abundance (fecal microbiota [2]; Symbol BACT_192, Number 995): 0.36
- Fold change (week 11/week 0) in relative species abundance (fecal microbiota [2]; Symbol BACT_194, Number 846): 0.51
- Fold change (week 11/week 0) in relative species abundance (fecal microbiota [2]; Symbol BACT_195, Number 523): 0.40
- Fold change (week 11/week 0) in relative species abundance (fecal microbiota [2]; Symbol BACT_196, Number 395): 12.66
- Fold change (week 11/week 0) in relative species abundance (fecal microbiota [2]; Symbol BACT_225, Number 953): 0.44
- Fold change (week 11/week 0) in relative species abundance (fecal microbiota [2]; Symbol BACT_258, Number 620): 0.55
- Fold change (week 11/week 0) in relative species abundance (fecal microbiota [2]; Symbol BACT_260, Number 1443): 0.55
- Fold change (week 11/week 0) in relative species abundance (fecal microbiota [2]; Symbol BACT_300, Number 769): 0.50
- Fold change (week 11/week 0) in relative species abundance (fecal microbiota [2]; Symbol BACT_371, Number 960): 2.13
- Fold change (week 11/week 0) in relative species abundance (fecal microbiota [2]; Symbol BACT_374, Number 805): 0.34
- Fold change (week 11/week 0) in relative species abundance (fecal microbiota [2]; Symbol BACT_392, Number 915): 0.66
- Fold change (week 11/week 0) in relative species abundance (fecal microbiota [2]; Symbol BACT_393, Number 932): 0.53
- Fold change (week 11/week 0) in relative species abundance (fecal microbiota [2]; Symbol BACT_397, Number 914): 0.45
- Fold change (week 11/week 0) in relative species abundance (fecal microbiota [2]; Symbol BACT_409, Number 845): 9.91
- Fold change (week 11/week 0) in relative species abundance (fecal microbiota [2]; Symbol BACT_413, Number 847): 1.25
- Fold change (week 11/week 0) in relative species abundance (fecal microbiota [2]; Symbol BACT_418, Number 749): 0.22
- Fold change (week 11/week 0) in relative species abundance (fecal microbiota [2]; Symbol BACT_419, Number 920): 0.15
- Fold change (week 11/week 0) in relative species abundance (fecal microbiota [2]; Symbol BACT_420, Number 922): 0.33
- Fold change (week 11/week 0) in relative species abundance (fecal microbiota [2]; Symbol BACT_424, Number 906): 0.29
- Fold change (week 11/week 0) in relative species abundance (fecal microbiota [2]; Symbol BACT_449, Number 772): 2.90
- Fold change (week 11/week 0) in relative species abundance (fecal microbiota [2]; Symbol BACT_463, Number 719): 0.00
- Fold change (week 11/week 0) in relative species abundance (fecal microbiota [2]; Symbol BACT_496, Number 765): 2.97
- Fold change (week 11/week 0) in relative species abundance (fecal microbiota [2]; Symbol BACT_499, Number 35): 0.24
- Fold change (week 11/week 0) in relative species abundance (fecal microbiota [2]; Symbol BACT_511, Number 591): 3.71
- Fold change (week 11/week 0) in relative species abundance (fecal microbiota [2]; Symbol BACT_535, Number 940): 0.14
- Fold change (week 11/week 0) in relative species abundance (fecal microbiota [2]; Symbol BACT_539, Number 117): 0.22
- Fold change (week 11/week 0) in relative species abundance (fecal microbiota [2]; Symbol BACT_551, Number 907): 0.62
- Fold change (week 11/week 0) in relative species abundance (fecal microbiota [2]; Symbol BACT_572, Number 963): 0.70
- Fold change (week 11/week 0) in relative species abundance (fecal microbiota [2]; Symbol BACT_586, Number 849): 0.70
- Fold change (week 11/week 0) in relative species abundance (fecal microbiota [2]; Symbol BACT_627, Number 886): 0.16
- Fold change (week 11/week 0) in relative species abundance (fecal microbiota [2]; Symbol BACT_632, Number 871): 3.17
- Fold change (week 11/week 0) in relative species abundance (fecal microbiota [2]; Symbol BACT_681, Number 125): 0.00
- Fold change (week 11/week 0) in relative species abundance (fecal microbiota [2]; Symbol BACT_686, Number 1007): 0.00
- Fold change (week 11/week 0) in relative species abundance (fecal microbiota [2]; Symbol BACT_722, Number 377): 1.88
- Fold change (week 11/week 0) in relative species abundance (fecal microbiota [2]; Symbol BACT_769, Number 610): 3.38
- Fold change (week 11/week 0) in relative species abundance (fecal microbiota [2]; Symbol BACT_843, Number 1318): 0.16
- Fold change (week 11/week 0) in relative species abundance (fecal microbiota [2]; Symbol BACT_850, Number 394): 2.51
- Fold change (week 11/week 0) in relative species abundance (fecal microbiota [2]; Symbol BACT_852, Number 766): 0.77
- Fold change (week 11/week 0) in relative species abundance (fecal microbiota [2]; Symbol BACT_855, Number 835): 0.34
- Fold change (week 11/week 0) in relative species abundance (fecal microbiota [2]; Symbol BACT_890, Number 163): 0.15
- Fold change (week 11/week 0) in relative species abundance (fecal microbiota [2]; Symbol BACT_913, Number 904): 1.10
- Fold change (week 11/week 0) in relative species abundance (fecal microbiota [2]; Symbol BACT_915, Number 1315): 10.39
- Fold change (week 11/week 0) in relative species abundance (fecal microbiota [2]; Symbol BACT_931, Number 1088): 0.53
- Fold change (week 11/week 0) in relative species abundance (fecal microbiota [2]; Symbol BACT_1001, Number 933): 0.75
- Fold change (week 11/week 0) in relative species abundance (fecal microbiota [2]; Symbol BACT_1025, Number 751): 0.53
- Fold change (week 11/week 0) in relative species abundance (fecal microbiota [2]; Symbol BACT_1043, Number 948): 1.08
- Fold change (week 11/week 0) in relative species abundance (fecal microbiota [2]; Symbol BACT_1083, Number 1008): 0.00
- Fold change (week 11/week 0) in relative species abundance (fecal microbiota [2]; Symbol BACT_1131, Number 942): 0.34
- Fold change (week 11/week 0) in relative species abundance (fecal microbiota [2]; Symbol BACT_1311, Number 1259): 0.34
- Fold change (week 11/week 0) in relative species abundance (fecal microbiota [2]; Symbol BACT_1314, Number 1399): 0.67
- Fold change (week 11/week 0) in relative species abundance (fecal microbiota [2]; Symbol BACT_1315, Number 1395): 0.46
- Fold change (week 11/week 0) in relative species abundance (fecal microbiota [2]; Symbol BACT_1321, Number 1255): 3.20
- Fold change (week 11/week 0) in relative species abundance (fecal microbiota [2]; Symbol BACT_1322, Number 1396): 0.91
- Fold change (week 11/week 0) in relative species abundance (fecal microbiota [2]; Symbol BACT_1324, Number 1264): 12.01
- Fold change (week 11/week 0) in relative species abundance (fecal microbiota [2]; Symbol BACT_1348, Number 1311): 9.24
- Fold change (week 11/week 0) in relative species abundance (fecal microbiota [2]; Symbol BACT_1378, Number 1375): 141.18
- Fold change (week 11/week 0) in relative species abundance (fecal microbiota [2]; Symbol BACT_1427, Number 1266): 0.00
- Fold change (week 11/week 0) in relative species abundance (fecal microbiota [2]; Symbol BACT_1442, Number 1400): 2.16
- Fold change (week 11/week 0) in relative species abundance (fecal microbiota [2]; Symbol BACT_1457, Number 1337): 0.23
- Fold change (week 11/week 0) in relative species abundance (fecal microbiota [2]; Symbol BACT_1496, Number 1321): 2.65
- Fold change (week 11/week 0) in relative species abundance (fecal microbiota [2]; Symbol BACT_1501, Number 1331): 0.17
- Fold change (week 11/week 0) in relative species abundance (fecal microbiota [2]; Symbol BACT_1526, Number 1227): 0.07
- Fold change (week 11/week 0) in relative species abundance (fecal microbiota [2]; Symbol BACT_1555, Number 1469): 0.21
- Fold change (week 11/week 0) in relative species abundance (fecal microbiota [2]; Symbol BACT_1569, Number 1462): 0.30
- Fold change (week 11/week 0) in relative species abundance (fecal microbiota [2]; Symbol BACT_1595, Number 1533): 0.00
- Fold change (week 11/week 0) in relative species abundance (fecal microbiota [2]; Symbol BACT_1596, Number 1502): 0.12
- Fold change (week 11/week 0) in relative species abundance (fecal microbiota [2]; Symbol BACT_1656, Number 1503): 0.12
- Fold change (week 11/week 0) in relative species abundance (fecal microbiota [2]; Symbol BACT_3004, Number 5797): 11.92
- Fold change (week 11/week 0) in relative species abundance (fecal microbiota [2]; Symbol BACT_3005, Number 5799): 1.01
- Fold change (week 11/week 0) in relative species abundance (fecal microbiota [2]; Symbol BACT_3007, Number 5798): 1.89
- Fold change (week 11/week 0) in relative species abundance (fecal microbiota [2]; Symbol BACT_3024, Number 5841): 0.02
- Fold change (week 11/week 0) in relative species abundance (fecal microbiota [2]; Symbol BACT_3045, Number 5818): 0.01
- Fold change (week 11/week 0) in relative species abundance (fecal microbiota [2]; Symbol BACT_3056, Number 5836): 0.00
- Fold change (week 11/week 0) in relative species abundance (fecal microbiota [2]; Symbol BACT_3058, Number 5816): 0.11
- Fold change (week 11/week 0) in relative species abundance (fecal microbiota [2]; Symbol BACT_3060, Number 5821): 0.00
- Fold change (week 11/week 0) in relative species abundance (fecal microbiota [2]; Symbol BACT_3062, Number 5800): 0.99
- Fold change (week 11/week 0) in relative species abundance (fecal microbiota [2]; Symbol BACT_3085, Number 5842): 0.03
- Fold change (week 11/week 0) in relative species abundance (fecal microbiota [2]; Symbol BACT_3092, Number 5793): 2.71
- Fold change (week 11/week 0) in relative species abundance (fecal microbiota [2]; Symbol BACT_4040, Number 5769): 1.16
- Fold change (week 11/week 0) in relative species abundance (fecal microbiota [2]; Symbol BACT_4042, Number 5770): 0.04
- Fold change (week 11/week 0) in relative species abundance (fecal microbiota [2]; Symbol EUKY_22, Number 1758): 0.45
- Fold change (week 11/week 0) in relative species abundance (fecal microbiota [2]; Symbol EUKY_141, Number 1875): 0.53
- Fold change (week 11/week 0) in relative species abundance (fecal microbiota [2]; Symbol EUKY_222, Number 1954): 0.49
- Fold change (week 11/week 0) in relative species abundance (fecal microbiota [2]; Symbol V1RL3522, Number 3522): 0.02
